Data: patent US20250152734A1, “USES AND FORMULATIONS OF CAMPTOTHECIN (CPT)-CONTAINING NANOPARTICLES” (DANTARI, INC., priority 2022, published 2025)

Test: Tolerability of CPT in 3-week mouse xenograft studies (ER2019-09-1B, ER2019-09-1C)
Assay type: in vivo
Description: This value is determined from the calculated free and total CPT concentrations in the sample. The “% free of total CPT” value provides the clearest indicator of drug substance stability during storage and use. […] The release specification for % free of total CPT in the drug substance is ≤3%. The stability specification for % free of total CPT in the drug substance is ≤5%. These limits are well below prior studies using CPT administered directly as a free drug. In two separate 3-week mouse xenograft studies (ER2019-09-1B, ER2019-09-1C) CPT itself was dosed and well-tolerated at 3 mg/kg which has a human equivalent dose of 9 mg CPT/m2.

## CC[C@@]1(O)C(=O)OCc2c1cc1n(c2=O)Cc2cc3ccccc3nc2-1 [CPT, 20 (S)-camptothecin]
3-week mouse xenograft studies
  well-tolerated dose: 3 mg/kg
mouse, in vivo
  human equivalent dose of tolerated dose: 9 mg CPT/m2
